pIC50: −log10 of the molar value. Where a name gives a salt, the structure may show the parent alone.
Experiments:
Assay type in all cases: biochemical
insulin receptor (INSr) = target: T1, insulin receptor (INSr) (Homo sapiens, UniProt P06213); test: Insulin receptor kinase assay; conditions: Table 1; as for EGF receptor with 10 mM manganese chloride
T1 construct: An assay using the intracellular kinase domains of insulin receptor (INSr) is performed

[1] = target: T2, PDGF receptor tyrosine kinase (mouse PDGF-β) (Mus musculus, UniProt P05622); test: PDGFr tyrosine kinase assay (poly glutamate-tyrosine phosphorylation); conditions: Table 1; 10 minutes at 25° C.
T2 construct: PCR primers are designed to amplify a fragment of DNA that codes for the intracellular tyrosine kinase domain; made in house; host or cells: Sf9 insect cells (baculovirus), cell lysate
Procedure: Platelet Derived Growth Factor Receptor (PDGFr) and Fibroblast Growth Factor Receptor (FGFr)
Full length cDNAs for the mouse PDGF-β and human FGF-1 (flg) receptor tyrosine kinases were obtained from J. Escobedo and are prepared as described in J. Biol. Chem., 262: 1482-1487 (1991). PCR primers are designed to amplify a fragment of DNA that codes for the intracellular tyrosine kinase domain. The fragment is melded into a baculovirus vector, cotransfected with AcMNPV DNA, and the recombinant virus isolated. SF9 insect cells are infected with the virus to overexpress the protein, and the cell lysate is used for the assay.
The assay is performed in 96-well plates (100 μL/incubation/well), and conditions are optimized to measure the incorporation of ^32 p from [γ^32 P]-ATP into a glutamate-tyrosine copolymer substrate. Briefly, to each well is added 82.5 μL of incubation buffer containing 25 mM Hepes (pH 7.0), 150 mM NaCl, 0.1% Triton X-100, 0.2 mM PMSF, 0.2 mM sodium vanadate, 10 mM manganese chloride, and 750 μg/mL of poly (4:1) glutamate-tyrosine followed by 2.5 μL of inhibitor and 5 μL of enzyme lysate (7.5 μg/μL FGFR-TK or 6.0 μg/μL PDGFR-TK) to initiate the reaction. Following a 10 minute incubation at 25° C., 10 μL of [γ^32 P]-ATP (0.4 μCi plus 50 μM ATP) is added to each well and samples are incubated for an additional 10 minutes at 25° C. The reaction is terminated by the addition of 100 μL of 30% trichloroacetic acid (TCA) containing 20 mM sodium pyrophosphate and precipitation of material onto glass fiber filter mats (Wallac). Filters are washed 3 times with 15% TCA containing 100 mM sodium pyrophosphate and the radioactivity retained on the filters counted in a Wallac 1250 Betaplate reader. Nonspecific activity is defined as radioactivity retained on the filters following incubation of samples with buffer alone (no enzyme). Specific enzymatic activity is defined as total activity (enzyme plus buffer) minus nonspecific activity.

[2] = target: T3, FGF receptor tyrosine kinase (human FGF-1 (flg)) (Homo sapiens, UniProt P11362); test: FGFr tyrosine kinase assay (poly glutamate-tyrosine phosphorylation); conditions: Table 1; 10 minutes at 25° C.
T3 construct: PCR primers are designed to amplify a fragment of DNA that codes for the intracellular tyrosine kinase domain; made in house; host or cells: Sf9 insect cells (baculovirus), cell lysate
Procedure: Platelet Derived Growth Factor Receptor (PDGFr) and Fibroblast Growth Factor Receptor (FGFr) Full length cDNAs for the mouse PDGF-β and human FGF-1 (flg) receptor tyrosine kinases were obtained from J. Escobedo and are prepared as described in J. Biol. Chem., 262: 1482-1487 (1991). PCR primers are designed to amplify a fragment of DNA that codes for the intracellular tyrosine kinase domain. The fragment is […] into a baculovirus vector, cotransfected with AcMNPV DNA, and the recombinant virus isolated. SF9 insect cells are infected with the virus to overexpress the protein, and the cell lysate is used for the […] and FGFr The assay is performed in 96-well plates (100 μL/incubation/well), and conditions are optimized to measure the incorporation of ^32 p from [γ^32 P]-ATP into a glutamate-tyrosine copolymer substrate. […] The reaction is terminated by the addition of 100 μL of 30% trichloroacetic acid (TCA) containing 20 mM sodium pyrophosphate and precipitation of material onto glass fiber filter mats (Wallac). Filters are washed 3 times with 15% TCA containing 100 mM sodium pyrophosphate and the radioactivity retained on the filters counted in a Wallac 1250 Betaplate reader. Nonspecific activity is defined as radioactivity retained on the filters following incubation of samples with buffer alone (no enzyme). Specific enzymatic activity is defined as total activity (enzyme plus buffer) minus nonspecific activity.

c-Src = target: T4, c-Src (Homo sapiens, UniProt P12931); test: c-Src kinase assay; conditions: Table 1; 5 μM ATP, room temperature, 10 minutes
T4 construct: made in house; host or cells: baculovirus infected insect cells
Procedure: c-Src kinase is purified from baculovirus infected insect cell lysates using an antipeptide monoclonal antibody directed against the N-terminal 2-17 amino acids as described previously by Fry, et al, Anticancer Drug Design. 9: 331-351 (1994). […] At the end of the lysate incubation, the beads are rinsed 3 times in lysis buffer, resuspended in lysis buffer containing 10% glycerol, and frozen. These latex beads are thawed, rinsed 3 times in assay buffer which is comprised of 40 mM tris pH 7.5, 5 mM magnesium chloride, and suspended in the same buffer. […] The reaction is started at room temperature by addition of the ATP and quenched 10 minutes later by the addition of 125 μL of 30% TCA, 0.1 M sodium pyrophosphate for 15 minutes on ice. The plate is then filtered and the wells washed with two 250-μL aliquots of 15% TCA, 0.1 M pyrophosphate. The filters are punched, counted in a liquid scintillation counter, and the data examined for inhibitory activity in comparison to a known inhibitor such as erbstatin. The method is described more fully in J. Med. Chem., 37: 598-609 (1994).

T4 sequence (P12931 whole entry, species assumed): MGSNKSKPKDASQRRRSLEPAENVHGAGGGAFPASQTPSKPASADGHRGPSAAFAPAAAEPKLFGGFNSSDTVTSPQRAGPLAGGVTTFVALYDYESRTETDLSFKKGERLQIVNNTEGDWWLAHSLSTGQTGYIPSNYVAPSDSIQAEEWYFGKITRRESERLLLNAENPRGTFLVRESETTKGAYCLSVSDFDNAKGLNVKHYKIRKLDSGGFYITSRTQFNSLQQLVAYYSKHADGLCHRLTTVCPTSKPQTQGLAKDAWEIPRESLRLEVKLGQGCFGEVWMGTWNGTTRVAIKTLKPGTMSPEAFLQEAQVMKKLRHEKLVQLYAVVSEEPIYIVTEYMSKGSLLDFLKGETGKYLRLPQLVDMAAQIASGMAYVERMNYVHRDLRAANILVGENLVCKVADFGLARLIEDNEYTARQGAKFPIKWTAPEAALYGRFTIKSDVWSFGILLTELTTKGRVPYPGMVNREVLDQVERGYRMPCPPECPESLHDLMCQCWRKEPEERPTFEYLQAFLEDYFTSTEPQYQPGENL
T3 sequence (P11362 478-767 limits assumed): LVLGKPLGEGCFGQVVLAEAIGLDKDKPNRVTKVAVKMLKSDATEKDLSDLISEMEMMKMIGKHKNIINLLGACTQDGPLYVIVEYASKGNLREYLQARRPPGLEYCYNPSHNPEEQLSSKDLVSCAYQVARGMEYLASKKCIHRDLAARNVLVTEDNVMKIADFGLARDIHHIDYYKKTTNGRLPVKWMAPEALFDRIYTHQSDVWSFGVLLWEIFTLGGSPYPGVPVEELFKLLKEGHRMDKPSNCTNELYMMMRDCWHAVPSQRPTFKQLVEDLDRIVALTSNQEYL
T2 sequence (P05622 599-961 limits assumed): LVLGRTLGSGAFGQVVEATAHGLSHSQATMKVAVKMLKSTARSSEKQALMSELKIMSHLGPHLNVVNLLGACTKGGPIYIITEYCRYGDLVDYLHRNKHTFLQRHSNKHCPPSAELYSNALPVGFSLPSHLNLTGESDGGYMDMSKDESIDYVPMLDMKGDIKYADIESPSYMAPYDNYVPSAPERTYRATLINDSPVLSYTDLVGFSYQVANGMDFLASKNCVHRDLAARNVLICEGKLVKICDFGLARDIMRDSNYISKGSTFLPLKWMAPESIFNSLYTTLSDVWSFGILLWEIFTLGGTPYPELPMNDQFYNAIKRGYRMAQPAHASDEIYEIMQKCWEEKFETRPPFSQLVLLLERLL
T1 sequence (P06213 1023-1298 limits assumed, species assumed): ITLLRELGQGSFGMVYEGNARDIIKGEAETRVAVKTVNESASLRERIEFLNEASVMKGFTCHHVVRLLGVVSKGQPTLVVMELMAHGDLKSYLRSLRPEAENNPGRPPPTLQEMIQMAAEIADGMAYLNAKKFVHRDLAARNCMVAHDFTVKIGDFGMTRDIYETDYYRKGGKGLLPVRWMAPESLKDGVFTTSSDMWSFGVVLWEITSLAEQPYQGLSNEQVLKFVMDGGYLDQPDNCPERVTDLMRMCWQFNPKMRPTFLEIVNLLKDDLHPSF

| SMILES | pIC50 (insulin receptor (INSr)) | pIC50 [1] | pIC50 [2] | pIC50 (c-Src) |
| --- | --- | --- | --- | --- |
| CCCCOc1ccc2c(c1)ncn2-c1ccccc1 [Example 31, 5-Butoxy-1-phenylbenzimidazole Hydrochloride] | < 4.30 |  |  |  |
| c1ccc(-n2cnc3cc(OCC4CO4)ccc32)cc1 (racemic) [Example 34, 5-(2,3-Epoxypropoxy)-1-phenylbenzimidazole] |  | 6.52 |  |  |
| O=C(O)c1cc2c(cc1O)ncn2-c1ccccc1 [Example 52, 5-Hydroxy-1-phenylbenzimidazole-6-carboxylic acid Hydrobromide] |  |  | 4.66 |  |
| COc1cc2ncn(-c3ccccc3)c2cc1CO [Example 53, 6-Hydroxymethyl-5-methoxy-1-phenylbenzimidazole Hydrochloride] | < 4.30 | 6.40 | 4.92 | 4.30 |
| COc1cc2ncn(-c3ccccc3)c2cc1C=O [Example 54, 5-Methoxy-1-phenylbenzimidazole-6-carboxaldehyde Hydrochloride] | < 4.30 | 5.96 |  |  |
| COc1ccc2c(c1)ncn2-c1cccs1 [Example 55, 5-Methoxy-1-(2-thienyl)benzimidazole Hydrochloride] | < 4.30 | 5.60 | 5.28 | < 4.30 |
| OCC(O)COc1ccc2c(c1)ncn2-c1ccccc1 (centres unmarked) [Example 33, 5-(2,3-Dihydroxypropoxy)-1-phenylbenzimidazole Hydrochloride] |  | 6.52 | 4.82 |  |
| CN(C)CCCCOc1ccc2c(c1)ncn2-c1ccccc1 [Example 58, 5-[4-(N,N-Dimethylamino)butoxy]-1-phenylbenzimidazole Dihydrochloride] |  | 6.70 | 5.22 | 4.30 |
| COc1cc2ncn(-c3ccccc3)c2cc1C [Example 49, 5-Methoxy-6-methyl-1-phenylbenzimidazole Hydrochloride] | < 4.30 |  |  |  |
| COc1ccc2c(c1)ncn2-c1ccsc1 [Example 56, 5-Methoxy-1-(3-thienyl)benzimidazole Hydrochloride] |  | 6.15 | 5.19 | < 4.30 |
| OCCCCOc1ccc2c(c1)ncn2-c1ccccc1 [Example 57, 5-(4-Hydroxybutoxy)-1-phenylbenzimidazole Hydrochloride] |  | 6.30 | 4.60 | < 4.30 |
| COc1ccc2c(ncn2-c2ccccc2)c1OC [Example 60, 4,5-Dimethoxy-1-phenylbenzimidazole Hydrochloride] |  |  |  | < 4.30 |
| COc1ccc2c(ncn2-c2ccccc2)c1O [Example 63, 4-Hydroxy-5-methoxy-1-phenylbenzimidazole Hydrochloride] |  | > 4.30 |  | 4.40 |
| c1ccc(-n2cnc3cc4c(cc32)OCO4)cc1 [Example 48, 5,6-Methylenedioxy-1-phenylbenzimidazole Hydrochloride] | < 4.30 |  | 4.57 |  |
| COc1c(O)ccc2c1ncn2-c1ccccc1 [Example 62, 5-Hydroxy-4-methoxy-1-phenylbenzimidazole Hydrochloride] |  | 4.30 | 4.30 |  |
| COc1cc2ncn(-c3ccccc3)c2cc1OC [Example 46, 5,6-Dimethoxy-1-phenylbenzimidazole Hydrochloride] | < 4.30 |  | 4.60 | 4.40 |

More lines, now with the values ahead:

| pIC50 (insulin receptor (INSr)) | pIC50 [1] | pIC50 [2] | pIC50 (c-Src) | SMILES |
| --- | --- | --- | --- | --- |
| < 4.30 | 6.52 | 4.46 | < 4.30 | CCCOc1ccc2c(c1)ncn2-c1ccccc1 [Example 29, 1-Phenyl-5-propoxybenzimidazole hydrochloride] |
| < 4.30 | 5.74 | 5.24 | < 4.30 | Oc1ccc(-n2cnc3ccccc32)cc1 [Example 6, 1-(4-Hydroxyphenyl)benzimidazole Hydrochloride] |
| < 4.30 | 6.22 | 4.46 | < 4.30 | C=CCOc1ccc2c(c1)ncn2-c1ccccc1 [Example 32, 5-Allyloxy-1-phenylbenzimidazole Hydrochloride] |
| < 4.30 | 5.00 | 4.31 | < 4.30 | c1ccc(-n2cnc3cnccc32)cc1 [Example 22, 1-Phenylimidazo-1H-imidazol[4,5-c]pyridine Hydrochloride] |
|  | 6.05 | 4.85 |  | CC(=O)c1ccc2c(c1)ncn2-c1ccccc1 [Example 20, 5-Acetyl-1-phenylbenzimidazole] |
| < 4.30 | 4.92 |  | < 4.30 | COc1ccc(-n2cnc3ccccc32)cc1 [Example 5, 1-(4-Methoxyphenyl)benzimidazole Hydrochloride] |
|  | 5.02 | < 4.30 |  | CCOc1ccc2ncn(-c3ccccc3)c2c1 [Example 44, 6-Ethoxy-1-phenylbenzimidazole] |
|  | 5.27 |  |  | Clc1ccc2ncn(-c3ccccc3)c2c1 [Example 42, 6-Chloro-1-phenylbenzimidazole] |
| < 4.30 | 4.91 | 4.30 | < 4.30 | c1ccc2c(c1)ncn2-c1ccncc1 [Example 10, 1-(4-Pyridinyl)benzimidazole dihydrochloride] |
|  | 5.28 | 4.43 | < 4.30 | C=CC(=O)Nc1ccc2c(c1)ncn2-c1ccccc1 [Example 25, 5-Acrylamido-1-phenylbenzimidazole] |
|  | 4.87 |  | < 4.30 | O=Cc1ccc(-n2cnc3ccccc32)cc1 [Example 9, 1-(4-Formylphenyl)benzimidazole] |
| < 4.30 | 6.70 | 4.59 |  | CCOc1ccc2c(c1)ncn2-c1ccccc1 [Example 28, 5-Ethoxy-1-phenylbenzimidazole Hydrochloride] |
| < 4.30 | > 4.30 |  |  | CC(C)Oc1ccc2c(c1)ncn2-c1ccccc1 [Example 30, 5-Isopropoxy-1-phenylbenzimidazole Hydrochloride] |
|  |  | 5.72 |  | Oc1ccc2c(ncn2-c2ccccc2)c1O [Example 61, 4,5-Dihydroxy-1-phenylbenzimidazole Hydrochloride] |
|  | 5.40 | 4.29 |  | Clc1ccc2c(c1)ncn2-c1ccccc1 [Example 15, 5-Chloro-1-phenylbenzimidazole] |
| < 4.30 |  |  |  | Cc1cc2c(cc1O)ncn2-c1ccccc1 [Example 50, 5-Hydroxy-6-methyl-1-phenylbenzimidazole Hydrochloride] |
| < 4.30 | 5.64 | 4.96 |  | Oc1cc2ncn(-c3ccccc3)c2cc1O [Example 47, 5,6-Dihydroxy-1-phenylbenzimidazole Hydrochloride] |

Reference: patent US5990146A, “Benzimidazoles for inhibiting protein tyrosine kinase mediated cellular proliferation” (Warner-Lambert Company, priority 1998, dated 1999)
